Results on 40 molecules are retold here after US6949544B2, “Inhibitors of c-Jun N-terminal kinases (JNK) and other protein kinases” (Vertex Pharmaceuticals Incorporated, priority 2001, dated 2005).

Each structure is given as a SMILES string.

Common to all, as to format: biochemical
The target of one assay is T1, activated JNK3 (Homo sapiens, UniProt P53779).
T1 construct: One such construct encodes amino acid residues Ser40-Glu402 of JNK3α1 and is preceded by Met and Gly residues; Met-Gly (initiator methionine and added glycine) (N); made in house; host or cells: E. coli BL21 (DE3)
Description: JNK inhibition assay (spectrophotometric coupled-enzyme assay). The note with it: 10 nM activated JNK3, 10 μM ATP; read-out: Activity in the JNK3 Inhibition Assay (Ki rating A-C). An excerpt: A BLAST search of the EST database using the published JNK3α1 cDNA as a query identified an EST clone (#632588) that contained the entire coding sequence for human JNK3α1. Polymerase chain reactions (PCR) using pfu polymerase (Strategene) were used to introduce restriction sites into the cDNA for cloning into the pET-15B expression vector at the NcoI and BamHI sites. The protein was expressed in E. coli. […] This truncation corresponds to Ser 2 of JNK1 and JNK2 proteins, and is preceded by a methionine (initiation) and a glycine residue. The glycine residue was added in order to introduce an NcoI site for cloning into the expression vector. In addition, systematic C-terminal truncations were performed by PCR to identify a construct that give rise to diffraction-quality crystals.
5 mg of JNK3 was diluted to 0.5 mg/ml in 50 mM HEPES buffer, pH 7.5, containing 100 mM NaCl, 5 mM DTT, 20 mM MgCl2 and 1 mM ATP. GST-MKK7(DD) was added at a molar ratio of 1:2.5 GST-MKK7:JNK3. After incubation for 30 minutes at 25° C., the reaction mixture was concentrated 5-fold by ultrafiltration in a Centriprep-30 (Amicon, Beverly, Mass.), diluted to 10 ml and an additional 1 mM ATP added. This procedure was repeated three times to remove ADP and replenish ATP. The final addition of ATP was 5 mM and the mixture incubated overnight at 4° C.
The activated JNK3/GST-MKK7(DD) reaction mixture was exchanged into 50 mM HEPES buffer, pH 7.5, containing 5 mM DTT and 5% glycerol (w/v) by dialysis or ultrafiltration. The reaction mixture was adjusted to 1.1 M potassium phosphate, pH 7.5, and purified by hydrophobic interaction chromatography (at 25° C.) using a Rainin Hydropore column. […] Activated JNK3 (i.e. doubly phosphorylated JNK3) was stored at −70° C. at 0.25-1 mg/ml.
Compounds were assayed for the inhibition of JNK3 by a spectrophotometric coupled-enzyme assay. In this assay, a fixed concentration of activated JNK3 (10 nM) was incubated with various concentrations of a potential inhibitor dissolved in DMSO for 10 minutes at 30° C. in a buffer containing 0.1 M HEPES buffer, pH 7.5, containing 10 mM MgCl2, 2.5 mM phosphoenolpyruvate, 200 μM NADH, 150 μg/mL pyruvate kinase, 50 μg/mL lactate dehydrogenase, and 200 μM EGF receptor peptide. […] The reaction was initiated by the addition of 10 μM ATP and the assay plate is inserted into the spectrophotometer's assay plate compartment that was maintained at 30° C. The decrease of absorbance at 340 nm was monitored as a function of time. The rate data as a function of inhibitor concentration was fitted to competitive inhibition kinetic model to determine the Ki.

The target of a further assay is CDK-2/Cyclin A (Homo sapiens, UniProt P24941). The assay can be described thus: CDK2 inhibition assay (standard coupled enzyme assay). The note with it: 25 nM CDK-2/Cyclin A; read-out: CDK2 Inhibitory Activity (Ki rating A-C). On the procedure:
Compounds were screened in the following manner for their ability to inhibit CDK2 using a standard coupled enzyme assay (Fox et al (1998) Protein Sci 7, 2249).
To an assay stock buffer solution containing 0.1M HEPES 7.5, 10 mM MgCl2, 1 mM DTT, 25 mM NaCl, 2.5 mM phosphoenolpyruvate, […], […], […], […], and 100 μM peptide ([…], American Peptide, Sunnyvale, Calif.) was added a DMSO solution of a compound of the present invention to a final concentration of 30 μM. The resulting mixture was incubated at 30° C. for 10 minutes.
The reaction was initiated by the addition of 10 μL of CDK-2/Cyclin A stock solution to give a final concentration of 25 nM in the assay. The rates of reaction were obtained by monitoring absorbance at 340 nm over a 5-minute read time at 30° C. using a BioRad Ultramark plate reader (Hercules, Calif.). The Ki values were determined from the rate data as a function of inhibitor concentration.

For assay [1], the target named is T2, Lck kinase purified from bovine thymus (Bos taurus, UniProt Q3ZCM0).
T2 construct: Lck kinase purified from bovine thymus; purchased Upstate Biotechnology 14-106; host or cells: bovine thymus (tissue-purified)
The assay can be described thus: Lck inhibition assay (33P incorporation into poly Glu-Tyr). To be noted: 10 μM ATP; read-out: Activity in the Lck Inhibition Assay (Ki rating A-C). On the procedure:
The compounds were assayed as inhibitors of Lck kinase purified from bovine thymus (from Upstate Biotechnology, cat. no. 14-106). Lck kinase activity was monitored by following the incorporation of ^33P from ATP into the tyrosine of a random poly Glu-Tyr polymer substrate of composition, Glu:Tyr=4:1 (Sigma, cat. no. P-0275). The following were the final concentrations of the assay components: 0.05 M HEPES, pH 7.6, 10 mM MgCl2, 2 mM DTT, 0.25 mg/ml BSA, 10 μM ATP (1-2 μCi ^33P-ATP per reaction), 5 mg/ml poly Glu-Tyr, and 1-2 units of lck kinase. In a typical assay, all the reaction components with the exception of ATP were pre-mixed and aliquoted into assay plate wells. […] The assay plate was incubated at 30° C. for 10 min before initiating the reaction with ^33P-ATP. After 20 min of reaction, the reactions were quenched with 150 μl of 10% trichloroacetic acid (TCA) containing 20 mM Na3PO4. The quenched samples were then transferred to a 96-well filter plate (Whatman, UNI-Filter GF/F Glass Fiber Filter, cat no. 7700-3310) installed on a filter plate vacuum manifold. Filter plates were washed four times with 10% TCA containing 20 mM Na3PO4 and then 4 times with methanol. 200 μl of scintillation fluid was then added to each well. The plates were sealed and the amount of radioactivity associated with the filters was quantified on a TopCount scintillation counter.

T1 sequence (P53779 40-402): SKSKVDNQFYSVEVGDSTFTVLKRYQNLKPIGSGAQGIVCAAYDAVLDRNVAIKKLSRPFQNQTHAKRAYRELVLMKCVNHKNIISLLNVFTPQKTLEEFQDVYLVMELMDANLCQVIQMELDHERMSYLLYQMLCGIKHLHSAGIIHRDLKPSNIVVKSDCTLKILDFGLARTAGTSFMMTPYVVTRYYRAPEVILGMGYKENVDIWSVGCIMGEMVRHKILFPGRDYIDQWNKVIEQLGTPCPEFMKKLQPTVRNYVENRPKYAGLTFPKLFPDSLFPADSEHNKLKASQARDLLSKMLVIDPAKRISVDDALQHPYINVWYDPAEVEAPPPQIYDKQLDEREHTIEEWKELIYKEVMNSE
T2 sequence (Q3ZCM0 1-509): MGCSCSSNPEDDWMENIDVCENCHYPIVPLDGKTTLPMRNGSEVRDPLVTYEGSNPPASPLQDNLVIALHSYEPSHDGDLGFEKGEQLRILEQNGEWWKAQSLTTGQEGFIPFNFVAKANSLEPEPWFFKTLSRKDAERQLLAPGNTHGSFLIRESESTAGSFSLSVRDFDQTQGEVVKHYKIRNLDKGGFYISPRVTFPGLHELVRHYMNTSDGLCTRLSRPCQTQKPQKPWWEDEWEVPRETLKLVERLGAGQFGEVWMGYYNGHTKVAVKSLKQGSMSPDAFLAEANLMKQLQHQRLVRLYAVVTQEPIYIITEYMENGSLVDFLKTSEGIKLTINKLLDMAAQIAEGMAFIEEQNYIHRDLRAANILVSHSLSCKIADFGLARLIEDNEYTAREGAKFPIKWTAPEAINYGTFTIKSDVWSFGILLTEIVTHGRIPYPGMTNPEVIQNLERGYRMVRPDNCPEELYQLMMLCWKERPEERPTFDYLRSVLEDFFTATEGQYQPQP

What is called Ki is the equilibrium dissociation constant of an inhibitor or competing ligand from its target. With `COc1cc(-c2ccnc(Nc3c(F)cccc3F)n2)cc(OC)c1OC` [Compound I-2], the Ki was 100 to 1000 nM on activated JNK3 and > 5000 nM at CDK-2/Cyclin A. The like results for `COc1cc(-c2ccnc(Nc3ccccc3C)n2)cc(OC)c1OC` [Compound I-7] were, in that order, 100 to 1000 nM and > 5000 nM.

Regarding `COc1cc(-c2ccnc(Nc3c(C)cccc3C)n2)cc(OC)c1OC` [Compound I-8], the inhibition constant Ki at activated JNK3 was > 1000 nM; at CDK-2/Cyclin A, > 5000 nM. The like results for `COc1cc(-c2ccnc(Nc3ccc([N+](=O)[O-])cc3)n2)cc(OC)c1OC` [Compound I-11] were, in that order, < 100 nM and > 5000 nM. As for `COc1cc(-c2ccnc(Nc3ccc(F)cc3)n2)cc(OC)c1OC` [Compound I-14], the Ki at activated JNK3 is > 1000 nM. On to `COc1cc(-c2ccnc(Nc3ccccc3)n2)cc(OC)c1OC` [Compound I-15], for which the figures for the Ki on activated JNK3 and at CDK-2/Cyclin A were < 100 nM and > 5000 nM, respectively.

Turning to `COc1cc(-c2ccnc(Nc3ccccc3C)n2)cc(OC)c1OC` [Compound I-16], the results for the Ki at activated JNK3 and on CDK-2/Cyclin A were < 100 nM and > 5000 nM, respectively.

`COc1cc(-c2ccnc(Nc3ccc(C)cc3)n2)cc(OC)c1OC` [Compound I-17]: the Ki on activated JNK3 is < 100 nM. On to `COc1cc(-c2ccnc(Nc3cccc(C(F)(F)F)c3)n2)cc(OC)c1OC` [Compound I-19], for which the Ki was < 100 nM at activated JNK3 and > 5000 nM at CDK-2/Cyclin A. As for `COc1ccc(Nc2nccc(-c3cc(OC)c(OC)c(OC)c3)n2)cc1` [Compound I-21], at activated JNK3, the Ki is < 100 nM. Regarding `COc1cc(-c2ccnc(Nc3cc(Cl)cc(Cl)c3)n2)cc(OC)c1OC` [Compound I-23], the Ki on activated JNK3 was < 100 nM; on CDK-2/Cyclin A, > 5000 nM. As for `COc1cc(-c2ccnc(Nc3cc(C)cc(C)c3)n2)cc(OC)c1OC` [Compound I-24], the Ki is 100 to 1000 nM at activated JNK3 and > 5000 nM on CDK-2/Cyclin A.

`COc1cc(-c2ccnc(Nc3ccc(C)c(C)c3)n2)cc(OC)c1OC` [Compound I-25]: on activated JNK3, the Ki was < 100 nM. Consider `COc1cc(-c2ccnc(Nc3ccccc3)n2)cc2c1OCO2` [Compound I-26, [4-(7-Methoxy-benzo[1,3]dioxol-5-yl)-pyrimidin-2-yl]-phenyl-amine], for which the Ki on activated JNK3 was 100 to 1000 nM; at CDK-2/Cyclin A, > 5000 nM. As to `COc1cc(-c2ccnc(Nc3cccc(C)c3)n2)cc2c1OCO2` [Compound I-27], the Ki on activated JNK3 was > 1000 nM.

Turning to `COc1cc(-c2ccnc(Nc3ccc(C)cc3)n2)cc2c1OCO2` [Compound I-28], at activated JNK3, the Ki lay in the range of 100 to 1000 nM. On to `COc1cc(-c2ccnc(Nc3cccc(F)c3)n2)cc2c1OCO2` [Compound I-29], for which the Ki on activated JNK3 lay in the range of 100 to 1000 nM.

With `COc1cc(-c2ccnc(Nc3cccc(Cl)c3)n2)cc2c1OCO2` [Compound I-30], the Ki at activated JNK3 is > 1000 nM. On the same count and under the same terms, as for `COc1cc(-c2ccnc(Nc3cccc(C(F)(F)F)c3)n2)cc2c1OCO2` [Compound I-31], the figure is > 1000 nM.

Take `COc1cccc(Nc2nccc(-c3cc(OC)c4c(c3)OCO4)n2)c1` [Compound I-32]: the Ki on activated JNK3 was 100 to 1000 nM; at CDK-2/Cyclin A, > 5000 nM. The like results for `COc1ccc(Nc2nccc(-c3cc(OC)c4c(c3)OCO4)n2)cc1` [Compound I-33] were, in that order, 100 to 1000 nM and > 5000 nM. With `COc1cc(-c2ccnc(Nc3cccc([N+](=O)[O-])c3)n2)cc(OC)c1OC` [Compound I-36], the inhibition constant (Ki) on activated JNK3 was < 100 nM; on CDK-2/Cyclin A, > 5000 nM. The like results for `CCOc1c(OC)cc(-c2ccnc(Nc3cccc(Cl)c3)n2)cc1OC` [Compound I-40] were, in that order, < 100 nM and > 5000 nM. As for `COc1cc(-c2ccnc(Nc3cccc(F)c3)n2)cc(OC)c1OCCN1CCOCC1` [Compound I-44], the results for the Ki at activated JNK3 and at CDK-2/Cyclin A were < 100 nM and > 5000 nM, respectively. The like results for `CCOc1c(OC)cc(-c2ccnc(Nc3cccc(F)c3)n2)cc1OC` [Compound I-45] were, in that order, < 100 nM and > 5000 nM. The like results for `COc1c(Cl)cc(-c2ccnc(Nc3cccc(F)c3)n2)cc1Cl` [Compound I-46] were, in that order, 100 to 1000 nM and > 5000 nM.

For `COc1c(C)cc(-c2ccnc(Nc3cccc(F)c3)n2)cc1C` [Compound I-47], at activated JNK3, the inhibitory constant (Ki) was < 100 nM. On to `COc1cc(-c2ccnc(Nc3cccc(C)c3)n2)cc(OC)c1OCCN1CCOCC1` [Compound I-53], for which the Ki at activated JNK3 is < 100 nM; at CDK-2/Cyclin A, > 5000 nM. For `CCOc1c(OC)cc(-c2ccnc(Nc3cccc(C)c3)n2)cc1OC` [Compound I-54], in that order: < 100 nM and > 5000 nM. The like results for `COc1c(Cl)cc(-c2ccnc(Nc3cccc(C)c3)n2)cc1Cl` [Compound I-55] were, in that order, < 100 nM and > 5000 nM. In the case of `COc1cc(-c2ccnc(Nc3cccc(OCc4ccccc4)c3)n2)cc(OC)c1OC` [Compound I-56], the Ki on activated JNK3 was > 1000 nM; on CDK-2/Cyclin A it was > 5000 nM. As for `CCc1nnc(Nc2nccc(-c3cc(OC)c(OC)c(OC)c3)n2)s1` [Compound I-84], the Ki on activated JNK3 is > 1000 nM. Still for that read-out and setting: as for `COc1cc(-c2ccnc(Nc3cccc(Cl)c3)c2)cc(OC)c1OC` [Compound I-146, (3-Chlorophenyl)-[4-(3,4,5-trimethoxyphenyl)-pyridin-2-yl]-amine], the figure is 100 to 1000 nM; as for `COc1cc(-c2ccnc(Nc3ccccc3Cl)c2)cc(OC)c1OC` [Compound I-147], 100 to 1000 nM. `COc1cc(-c2ccnc(Nc3c(F)cccc3F)c2)cc(OC)c1OC` [Compound I-151]: the Ki on activated JNK3 lay within 100 to 1000 nM. Take `COc1cc(-c2ccnc(Nc3cccc(F)c3)c2)cc(OC)c1OC` [Compound I-154]: the Ki at activated JNK3 lay in the range of 100 to 1000 nM.

As for `COc1cc(-c2ccnc(Nc3ccccc3)c2)cc(OC)c1OC` [Compound I-155], the Ki on activated JNK3 lay within 100 to 1000 nM. Turning to `COc1ccc(-c2ccnc(Nc3cccc(OCc4ccccc4)c3)n2)c(OC)c1OC` [II-2], in assay [1], the Ki is 100 to 1000 nM. Still for that read-out and setting: then `COc1ccc(-c2ccnc(Nc3ccc([N+](=O)[O-])cc3)n2)c(OC)c1OC` [II-4], with 100 to 1000 nM.

Consider `COc1ccc(-c2ccnc(Nc3n[nH]c4ccccc34)n2)c(OC)c1OC` [II-56], for which the Ki at CDK-2/Cyclin A is > 5000 nM.
